Common to all, as to assay type: cell-based
Data set [1] in a line: Cytotoxicity in PHH natural infection assay (Cell Counting Kit-8). The following applies: HBV-infected primary human hepatocytes, CCK8. As to the method:
(§1) Detailed procedures regarding primary human hepatocyte (PHH) HBV natural infection assay are described as below. One tube of frozen PHH (10 million cells) is thawed in 37° C. water bath and then transferred to 20 mL of PHH thawing medium (Sigma, InVitroGRO HT Medium, Cat. S03319) with gently mixing. The cells were then centrifuged at […] for 5 min, the supernatant was discarded and the tube was refilled with 25 mL of PHH plating medium (Sigma, InVitroGRO CP Medium, Cat. 503317). The tube was shaken very gently to re-suspend all cells. 50 μl of cells were transferred to each well 384-well collagen I coated plate with appropriate liquid handling equipment, e.g. Integra VIAFLO384 or Agilent Bravo. The cells were then cultured for 24 hours in a cell incubator. For HBV infection, after PHH attachment on the culture plate, the plating medium was removed and replenished with PHH culture medium containing HBV virus. The PHH culture medium was prepared with Dulbecco's Modified Eagle Medium (DMEM)/F12 (1:1 in volume ratio) containing 10% fetal bovine serum (Gibco, Cat. 10099141), […] (Gibco, Cat. PHG03I1L), 20 ng/mL dexamethasone (Sigma, Cat. D4902-100 mg), 250 ng/mL human recombinant insulin (Gibco, Cat. 41400045) and 100 U/mL penicillin. HBV virus at 200 genome equivalent (GE) per cell with 4% PEG8000 (Sigma, Cat. P1458) containing culture medium were added to the PHH culture medium for infection. The cells were then cultured for 24 hours in cell incubator. Then the cell culture supernatant was removed. The HBV-infected PHH were cultured with sandwich culture method with PHH culture medium containing 1% DMSO and 0.25 mg/mL matrix gel for 72 hours. The supernatant was then refreshed with PHH culture medium containing different concentrations of testing compounds for two times with 72-hour interval. At the end of treatment, the supernatant was collected for viral markers measurements, including HBsAg, HBeAg, HBV DNA and cytotoxicity. HBsAg and HBeAg were detected using alphalisa method using their specific antibodies. For HBV DNA detection, HBV DNA Quantitative Fluorescence Diagnostic Kit (Sansure Biotech Inc.) was used following the manufacture's protocol. Cytotoxicity was determined using Cell Counting Kit-8 (CCK8, Dojindo Molecular Technologies, Inc.).
Background: Tetrazolium dyes change colour on reduction, which living cells bring about.

The test system of the next data set is HBeAg. Description: PHH HBV natural infection assay, HBeAg (alphalisa). Conditions: Hepatitis B virus, Hepatocyte, 72 h, read-out: HbeAg IC50. As to the method: as §1
(§2) The compounds of the present invention were tested for their capacity to inhibit HBsAg and HBeAg as described herein.
A general note: Bead proximity is the source of the signal in Alpha formats.

A further data set deals with HBsAg. Description: PHH HBV natural infection assay, HBsAg (alphalisa). Conditions: Hepatitis B virus, Hepatocyte, 72 h, read-out: HBsAg IC50. As to the method: as §1, §2

Results on 22 molecules are retold here after patent US20230286929A1, “AROMATIC BRIDGED RING AMIDE DERIVATIVES FOR THE TREATMENT AND PROPHYLAXIS OF HEPATITIS B VIRUS INFECTION” (Hoffmann-La Roche Inc., priority 2020, published 2023).

As usually defined, the CC50 is the concentration at which the toxic effect on the cells reaches its halfway point. By IC50 is commonly meant the concentration that inhibits the measured activity by half.

Take `O=C(NC12CC(c3nc4cc(Cl)ccc4o3)(C1)C2)c1ccc(C(F)(F)F)nn1` [Example 27, N-[3-(5-chloro-1,3-benzoxazol-2-yl)-1-bicyclo[1.1.1]pentanyl]-6-(trifluoromethyl)pyridazine-3-carboxamide]: the CC50 at 144 h in data set [1] was greater than 100 µM. Moreover, the IC50 in the data set on HBeAg is 1.12 µM; in the data set on HBsAg it was 3.85 µM.
In data set [1], `O=C(NC12CC(c3nc4cc(Cl)ccc4o3)(C1)C2)C1CC2(C1)CS(=O)(=O)C2` [Example 30, N-[3-(5-chloro-1,3-benzoxazol-2-yl)-1-bicyclo[1.1.1]pentanyl]-2,2-dioxo-2lambda6-thiaspiro[3.3]heptane-6-carboxamide] returned a CC50 at 144 h greater than 100 µM. Further, the IC50 in the data set on HBeAg is 7.77 µM; in the data set with HBsAg it was 9.82 µM.
In data set [1], `CS(=O)(=O)c1ccc(C(=O)NC23CC(c4nc5ccc(Cl)cc5o4)(C2)C3)o1` [Example 32, N-[3-(6-chloro-1,3-benzoxazol-2-yl)-1-bicyclo[1.1.1]pentanyl]-5-methylsulfonyl-furan-2-carboxamide] returned a CC50 at 144 h greater than 100 µM. In addition, the results for the half-maximal inhibitory concentration (IC50) in the data set with HBeAg and in the data set with HBsAg were 3.46 µM and 5.67 µM, respectively.
`O=C(NC12CCC(c3nc4cc(Cl)ccc4o3)(CC1)CC2)C1CCCS1(=O)=O` (stereo not drawn) [Example 49, N-[4-(5-chloro-1,3-benzoxazol-2-yl)-1-bicyclo[2.2.2]octanyl]-1,1-dioxo-thiolane-2-carboxamide] showed a 50% cytotoxic concentration (CC50) at 144 h in data set [1] greater than 100 µM. The figures for the IC50 in the data set on HBeAg and in the data set with HBsAg were 1.27 µM and 2.73 µM, respectively.
For `O=C(NC12CC(c3nc4cc(Cl)ccc4o3)(C1)C2)c1ccc(C(F)(F)F)nc1` [Example 25, N-[3-(5-chloro-1,3-benzoxazol-2-yl)-1-bicyclo[1.1.1]pentanyl]-6-(trifluoromethyl)pyridine-3-carboxamide], in data set [1], the CC50 at 144 h was greater than 100 µM. In addition, the figures for the IC50 with HBeAg and with HBsAg were 4.36 µM and 8.71 µM, respectively.
In data set [1], `CSc1ccc(C(=O)NC23CC(c4nc5cc(Cl)ccc5o4)(C2)C3)o1` [Example 3, N-[3-(5-chloro-1,3-benzoxazol-2-yl)-1-bicyclo[1.1.1]pentanyl]-5-methylsulfanyl-furan-2-carboxamide] showed a CC50 at 144 h greater than 100 µM. In addition, the IC50 in the data set with HBeAg came to 3.83 µM; in the data set with HBsAg, 8.05 µM.
On to `CS(=N)(=O)c1cccc(C(=O)NC23CC(c4nc5cc(Cl)ccc5o4)(C2)C3)c1` (stereo not drawn) [Example 29, N-[3-(5-chloro-1,3-benzoxazol-2-yl)-1-bicyclo[1.1.1]pentanyl]-3-(methylsulfonimidoyl)benzamide], for which the CC50 at 144 h in data set [1] was greater than 100 µM. For the same molecule, the IC50 in the data set on HBeAg is 3.06 µM; with HBsAg it was 3.85 µM.
Consider `O=C(CC1CCCS1(=O)=O)NC12CCC(c3nc4cc(Cl)ccc4o3)(CC1)CC2` (stereo not drawn) [Example 53, N-[4-(5-chloro-1,3-benzoxazol-2-yl)-1-bicyclo[2.2.2]octanyl]-2-(1,1-dioxothiolan-2-yl)acetamide], for which, in data set [1], the CC50 at 144 h is greater than 100 µM. The IC50 stood at 1.87 µM with HBeAg and 2.28 µM in the data set on HBsAg.
Turning to `O=C(NC12CCC(c3nc4cc(Cl)ccc4o3)(CC1)CC2)c1ccc(C(F)(F)F)o1` [Example 47, N-[4-(5-chloro-1,3-benzoxazol-2-yl)-1-bicyclo[2.2.2]octanyl]-5-(trifluoromethyl)furan-2-carboxamide], the 50% cytotoxic concentration (CC50) at 144 h in data set [1] is greater than 100 µM. Further, the values for the IC50 in the data set on HBeAg and in the data set with HBsAg were 3.91 µM and 7.69 µM, respectively.
The molecule `O=C(NC12CC(c3nc4cc(Cl)ccc4o3)(C1)C2)c1cnc(C(F)(F)F)nc1` [Example 26, N-[3-(5-chloro-1,3-benzoxazol-2-yl)-1-bicyclo[1.1.1]pentanyl]-2-(trifluoromethyl)pyrimidine-5-carboxamide] returned a CC50 at 144 h in data set [1] of 88.2 µM. For the same molecule, the half-maximal inhibitory concentration (IC50) with HBeAg is 3.67 µM; in the data set with HBsAg, 6.29 µM.
`O=C(NC12CC(c3nc4cc(Cl)ccc4o3)(C1)C2)c1cccc(Br)c1` [Example 19, 3-bromo-N-[3-(5-chloro-1,3-benzoxazol-2-yl)-1-bicyclo[1.1.1]pentanyl]benzamide] came in with a cytotoxic concentration (CC50) at 144 h in data set [1] greater than 100 µM. The IC50 in the data set on HBeAg came out at 3.23 µM; in the data set on HBsAg it was 2.61 µM.
In turn, `O=C(NC12CC(c3nc4cc(Cl)ccc4o3)(C1)C2)c1cncc(C(F)(F)F)c1` [Example 24, N-[3-(5-chloro-1,3-benzoxazol-2-yl)-1-bicyclo[1.1.1]pentanyl]-5-(trifluoromethyl)pyridine-3-carboxamide] registered a CC50 at 144 h in data set [1] greater than 100 µM. Besides, the IC50 with HBeAg is 8.82 µM; in the data set with HBsAg, 5.23 µM.
Consider `CS(=N)(=O)Cc1ccc(C(=O)NC23CC(c4nc5cc(Cl)ccc5o4)(C2)C3)o1` (stereo not drawn) [Example 17, N-[3-(5-chloro-1,3-benzoxazol-2-yl)-1-bicyclo[1.1.1]pentanyl]-5-[(methylsulfonimidoyl)methyl]furan-2-carboxamide], for which, in data set [1], the CC50 at 144 h was greater than 100 µM. The concentration for half-maximal inhibition (IC50) in the data set with HBeAg stood at 2.19 µM; in the data set with HBsAg it was 3.25 µM.
The molecule `CS(=O)(=O)c1ccc(C(=O)NC23CC(c4nc5cc(Cl)ccc5o4)(C2)C3)o1` [Example 1, N-[3-(5-chloro-1,3-benzoxazol-2-yl)-1-bicyclo[1.1.1]pentanyl]-5-methylsulfonyl-furan-2-carboxamide] yielded a CC50 at 144 h in data set [1] greater than 100 µM. For the same molecule, the figures for the IC50 in the data set with HBeAg and in the data set with HBsAg were 1.77 µM and 2.17 µM, respectively.
Molecule `NS(=O)(=O)c1ccc(C(=O)NC23CC(c4nc5cc(Cl)ccc5o4)(C2)C3)o1` [Example 10, N-[3-(5-chloro-1,3-benzoxazol-2-yl)-1-bicyclo[1.1.1]pentanyl]-5-sulfamoyl-furan-2-carboxamide] returned a CC50 at 144 h in data set [1] greater than 100 µM. For the same molecule, the half-inhibitory concentration (IC50) is 2.67 µM in the data set on HBeAg and 4.44 µM in the data set with HBsAg.
Taken in the same sequence, the figures for `O=C(NC12CC(c3nc4cc(Cl)ccc4o3)(C1)C2)c1ccc([S+]([O-])C2CC2)o1` (stereo not drawn) [Example 4, N-[3-(5-chloro-1,3-benzoxazol-2-yl)-1-bicyclo[1.1.1]pentanyl]-5-cyclopropylsulfinyl-furan-2-carboxamide] were 80 µM, 1.32 µM and 2.81 µM.
`CS(=N)(=O)c1ccc(C(=O)NC23CC(c4nc5cc(Cl)ccc5o4)(C2)C3)o1` (stereo not drawn) [Example 12, N-[3-(5-chloro-1,3-benzoxazol-2-yl)-1-bicyclo[1.1.1]pentanyl]-5-(methylsulfonimidoyl)furan-2-carboxamide] came in with a CC50 at 144 h in data set [1] greater than 100 µM. Besides, the values for the IC50 with HBeAg and in the data set on HBsAg were 0.891 µM and 1.52 µM, respectively.
Taken in the same sequence, the figures for `CS(=O)(=O)Cc1ccc(C(=O)NC23CC(c4nc5cc(Cl)ccc5o4)(C2)C3)o1` [Example 16, N-[3-(5-chloro-1,3-benzoxazol-2-yl)-1-bicyclo[1.1.1]pentanyl]-5-(methylsulfonylmethyl)furan-2-carboxamide] were greater than 100 µM, 0.575 µM and 0.66 µM.
`O=C(NC12CCC(c3nc4cc(Cl)ccc4o3)(CC1)CC2)C1CCS(=O)(=O)C1` (stereo not drawn) [Example 50, N-[4-(5-chloro-1,3-benzoxazol-2-yl)-1-bicyclo[2.2.2]octanyl]-1,1-dioxo-thiolane-3-carboxamide] returned a CC50 at 144 h in data set [1] greater than 100 µM. The IC50 with HBeAg was 5.11 µM; in the data set with HBsAg it was 4.14 µM.
In data set [1], `O=C(NC12CC(c3nc4cc(Cl)ccc4o3)(C1)C2)c1ccc(Br)o1` [Example 8, 5-bromo-N-[3-(5-chloro-1,3-benzoxazol-2-yl)-1-bicyclo[1.1.1]pentanyl]furan-2-carboxamide] displayed a CC50 at 144 h greater than 100 µM. For the same molecule, the IC50 stood at 14.8 µM in the data set on HBeAg and 9.04 µM in the data set with HBsAg.
In turn, `CS(=O)(=O)Cc1ccc(C(=O)NC23CC(c4nc5cnc(Cl)cc5o4)(C2)C3)o1` [Example 43, N-[3-(6-chlorooxazolo[4,5-c]pyridin-2-yl)-1-bicyclo[1.1.1]pentanyl]-5-(methylsulfonylmethyl)furan-2-carboxamide] yielded a CC50 at 144 h in data set [1] greater than 10 µM. Moreover, the IC50 with HBeAg is 5.55 µM; in the data set on HBsAg, 7.62 µM.
The molecule `O=C(NC12CC(c3nc4ccc(Cl)cc4o3)(C1)C2)c1ccnc(S(=O)(=O)C2CC2)c1` [Example 38, N-[3-(6-chloro-1,3-benzoxazol-2-yl)-1-bicyclo[1.1.1]pentanyl]-2-cyclopropylsulfonyl-pyridine-4-carboxamide] showed a CC50 at 144 h in data set [1] greater than 10 µM. Further, the half-inhibitory concentration (IC50) in the data set with HBeAg is 4.48 µM; in the data set with HBsAg it was 6.65 µM.
